Source: US6649656B1, “Anthranilic acid derivatives” (Teijin Limited, priority 1998, dated 2003)
Like-named read-outs stand apart in the source and are kept apart here.

Experiments:
Type in all cases: cell-based
L929 cells = assay: Measurement of cytotoxicity using mouse tumor cell L929 (neutral red assay)
Description: [Procedure] The cytotoxicity action on tumor cell was measured by neutral red assay (the method described in the Journal of Tissue Culture Methodology vol.9, p.7 (1984) and Toxicology Letters, vol.24, p.119 (1985)). Concretely, L929 cells (5×10^4 cells/ml, 10% FCS/RPMI) were added to the wells of a 96 well ELISA plate at a rate of 100 μL each and cultured for a night, and the testing compounds of respective measurement concentrations were dissolved in DMSO solution and added to the above cells. The culture was continued for 3 days, and 2.0 μL of Neutral Red was added to attain the final concentration of 0.01%. The mixture was incubated for 1 hour at 37° C., the supernatant of the cell culture product was removed and the residue was washed twice with 200 μL of PBS to remove excess Neutral Red. Thereafter, the dye taken into the cell was extracted by adding 100 μL of 50% ethanol-1% acetic acid aqueous solution and the amount of the dye was determined by measuring the absorbance at 490 nm. The cytotoxicity was determined at each concentration of the test compound taking the cytotoxicity free from the drug as 100%. […] Two sets of measurement were performed for each test under the same condition and the average value was used as the test result.

[1] = test system: IgG antibody production from human lymphocyte; assay: Human in vitro IgG antibody production (same lymphocyte culture, sandwich ELISA); details: for inhibition at 1 µM: Homo sapiens, Lymphocyte, test drug concentration 1 μM, IL-4 + IL-10 + anti-CD40 antibody, read-out: IgG production suppressing ratio (%); for IC50: IgG antibody production
Description: (§1) The concentrations of IgE and IgG antibodies were measured by the following method according to the method described in the Journal of Immunology vol.146, pp.1836-1842, 1991 and the Journal of Immunology vol. 147, pp.8-13, 1991.
(§2) Concretely, lymphocyte was separated from the peripheral venous blood of healthy person by density gradient centrifugation. The obtained lymphocyte was washed, suspended in a culture liquid (RPMI-1640 (product of Gibco Co.)+10% heat-inactivated FCS (product of Whittaker Co.)+100 μg/ml streptomycin+100 U/ml penicillin G+2 mM L-glutamine) and cultured for a week in the presence of interleukin 4 (IL-4, product of GENZYME Co.) (0.1 μg/ml), anti-CD40 antibody (antiCD40Aab, product of BIOSOURCE Co.), clone B-B20) (2 μg/ml) and interleukin 10 (IL-10, product of GENZYME Co.) (0.2 μg/ml) in the presence or absence of the compounds of the present invention described in the Tables 10 to 15 at various concentrations as test drugs.
(§3) The culture liquid was added to the culture system, the culture was continued for additional one week, and the concentrations of IgE and IgG antibodies in the supernatant were measured by sandwich ELISA method.
(§4) The measurement by ELISA method was carried out according to the known ELISA method by using rabbit anti-human IgE(ε) antibody (product of ICN Co.) as the primary antibody and biotin.anti-human IgE monoclonal antibody (G7-26, product of PharMingen Co.) as the secondary antibody for the measurement of IgE antibody concentration and anti-human IgG monoclonal antibody (G18-145, product of PharMingen Co.) as the primary antibody and biotin-donkey anti-human IgG antibody (H+L) (product of Jackson Co.) as the secondary antibody for the measurement of IgG antibody concentration, and using avidin-biotin-hourse radish peroxidase (ABC kit, product of Vector Lab.) as the enzyme and TMB (3,3′,5,5′-tetramethylbenzidine) microwell peroxidase substrate system (product of Kirkegaard & Perry Laboratories Inc.) as the substrate.
(§5) The value of IC50 and the suppressing ratio (%) at the test drug concentration of 1 μM were calculated based on the concentration attained in the absence of the compound of the present invention (reference: Ueshimna, et al. American Academy of Allergy & Immunology, 1995 Annual Meeting, Program No.818).

[2] = test system: IgE antibody production from human lymphocyte; assay: Human in vitro IgE antibody production suppressing activity (lymphocyte culture with IL-4 + IL-10 + anti-CD40 antibody, sandwich ELISA); details: for IC50: IgE antibody production; for inhibition at 1 µM: test drug concentration 1 μM, IL-4 + IL-10 + anti-CD40 antibody, read-out: IgE production suppressing ratio (%)
Description: as §1, §2, §3, §4, §5

[3] = 72 h, cytotoxic activity against L929, neutral red assay, 3 days culture, read-out: LD50 (the source's name)
[4] = L929, 72 h, read-out: LD50 (μM)

Row | Compound | CC50 (L929 cells; [3]) [µM] | inhibition at 1 µM [1] [%] | IC50 [1] [µM] | IC50 [2] [µM] | inhibition at 1 µM [2] [%] | CC50 (L929 cells; [4]) [µM]
1 | Cn1c(C(=O)N[C@H]2CC[C@@H](Oc3ccc(Oc4ccc(CC(=O)Nc5ccccc5C(=O)O)cc4)cc3)CC2)cc2ccccc21 [compound 167] | 0.18 |  |  |  |  | 
2 | O=C(Cc1ccc(Oc2ccc(OC3CCC(NC(=O)Nc4ccc(Cl)c(Cl)c4)CC3)cc2)cc1)Nc1ccccc1C(=O)O (stereo not shown) [compound 142] | 0.54 | 93.7 | 0.141 | 0.034 | 100 | 
3 | O=C(Cc1ccc(Oc2ccc(OCC3(NSc4ccccc4)CCCC3)cc2)cc1)Nc1ccccc1C(=O)O [compound 268] | 0.16 |  |  |  |  | 
4 | O=C(Cc1ccc(Oc2ccc(OC3CCOCC3)cc2)cc1)Nc1ccccc1C(=O)O [compound 44] |  | 88.5 | 0.404 | 0.221 | 100 | 1.16
5 | CN(C)CCOc1ccc(Oc2ccc(CC(=O)Nc3ccccc3C(=O)O)cc2)cc1 [compound 47] | 0.2 |  |  |  |  | 
6 | CCCCC(=O)N[C@H]1CC[C@@H](Oc2ccc3cc(Oc4ccc(C(=O)Nc5ccccc5C(=O)O)cc4)ccc3c2)CC1 [compound 370] |  | -45.5 | > 1 | 0.027 | 94.7 | 6.8
7 | CC(=O)Nc1ccc(CCOc2ccc(Oc3ccc(CC(=O)Nc4ccccc4C(=O)O)cc3)cc2)cc1 [compound 45] | 0.22 | -179 | 0.631 | 0.305 | 99.4 | 
8 | N#Cc1cccc(SN2CCC(Oc3ccc(Oc4ccc(CC(=O)Nc5ccccc5C(=O)O)cc4)cc3)CC2)c1 [compound 264] | 0.156 |  |  |  |  | 
9 | O=C(Cc1ccc(Oc2ccc3cc(OCC(=O)c4ccccc4)ccc3c2)cc1)Nc1ccccc1C(=O)O [compound 6] |  |  |  |  |  | 2.4
10 | O=C(Cc1ccc(Oc2ccc(O[C@H]3CC[C@@H](NC(=O)c4ccc(-c5ccccc5)cc4)CC3)cc2)cc1)Nc1ccccc1C(=O)O [compound 192] | 0.26 |  |  |  |  | 
11 | CC(=O)NC1(COc2ccc(Oc3ccc(CC(=O)Nc4ccccc4C(=O)O)cc3)cc2)CCCC1 [compound 73] |  |  |  |  |  | > 5
12 | O=C(Cc1ccc(Oc2ccc(O[C@H]3CC[C@@H](NC(=O)c4ccc(Oc5cc(Cl)cc(Cl)c5)o4)CC3)cc2)cc1)Nc1ccccc1C(=O)O [compound 248] | 0.085 |  |  |  |  | 
